± gives the uncertainty stated by the source.
Assay: xn = mol fraction of the nth substance listed

O=C(O)CC(O)(CC(=O)O)C(=O)O + C[N+](C)(C)CCO.[Cl-]
viscosity [mPa·s], x2 = 0.5
Settings	298 K	303 K	313 K	323 K
101 kPa	–	2085000 ± 590000	510000 ± 120000	–
101.3 kPa	14480 ± 1200	–	–	2242 ± 140

O=CO + C1COCO1
298.15 K, 101 kPa
Settings	viscosity [mPa·s]
x2 = 0.0646	1.419 ± 0.017
x2 = 0.1345	1.36 ± 0.016
x2 = 0.2103	1.292 ± 0.015
x2 = 0.2929	1.216 ± 0.013
x2 = 0.3832	1.131 ± 0.012
x2 = 0.4824	1.035 ± 0.011
x2 = 0.5918	0.9302 ± 0.0091
x2 = 0.7131	0.8195 ± 0.0077
x2 = 0.8483	0.7018 ± 0.0063

O=CO + O
Settings	viscosity [mPa·s]
293.15 K, 101.33 kPa, x1 = 0.0417	1.098 ± 0.011
293.15 K, 101.33 kPa, x1 = 0.1309	1.195 ± 0.012
293.15 K, 101.33 kPa, x1 = 0.144	1.216 ± 0.012
293.15 K, 101.33 kPa, x1 = 0.1574	1.215 ± 0.012
293.15 K, 101.33 kPa, x1 = 0.2621	1.323 ± 0.013
293.15 K, 101.33 kPa, x1 = 0.2708	1.328 ± 0.013
293.15 K, 101.33 kPa, x1 = 0.281	1.344 ± 0.013
293.15 K, 101.33 kPa, x1 = 0.2928	1.347 ± 0.013
293.15 K, 101.33 kPa, x1 = 0.3352	1.394 ± 0.014
293.15 K, 101.33 kPa, x1 = 0.338	1.4 ± 0.014
293.15 K, 101.33 kPa, x1 = 0.3556	1.4 ± 0.014
293.15 K, 101.33 kPa, x1 = 0.3729	1.414 ± 0.014
293.15 K, 101.33 kPa, x1 = 0.4039	1.478 ± 0.015
293.15 K, 101.33 kPa, x1 = 0.4086	1.48 ± 0.015
293.15 K, 101.33 kPa, x1 = 0.4832	1.519 ± 0.015
293.15 K, 101.33 kPa, x1 = 0.5055	1.525 ± 0.015
293.15 K, 101.33 kPa, x1 = 0.5951	1.601 ± 0.016
293.15 K, 101.33 kPa, x1 = 0.9418	1.68 ± 0.017
298.15 K, 101 kPa, x1 = 0.0122	0.907 ± 0.18
298.15 K, 101 kPa, x1 = 0.1286	1.041 ± 0.21
298.15 K, 101 kPa, x1 = 0.525	1.379 ± 0.28
298.15 K, 101.33 kPa, x1 = 0.1037	0.979 ± 0.0098
298.15 K, 101.33 kPa, x1 = 0.1496	1.029 ± 0.01
298.15 K, 101.33 kPa, x1 = 0.1753	1.039 ± 0.01
298.15 K, 101.33 kPa, x1 = 0.2194	1.076 ± 0.011
298.15 K, 101.33 kPa, x1 = 0.3029	1.174 ± 0.012
298.15 K, 101.33 kPa, x1 = 0.3271	1.219 ± 0.012
298.15 K, 101.33 kPa, x1 = 0.3334	1.227 ± 0.012
298.15 K, 101.33 kPa, x1 = 0.3355	1.228 ± 0.012
298.15 K, 101.33 kPa, x1 = 0.3729	1.268 ± 0.013
298.15 K, 101.33 kPa, x1 = 0.4205	1.305 ± 0.013
298.15 K, 101.33 kPa, x1 = 0.4762	1.356 ± 0.014
298.15 K, 101.33 kPa, x1 = 0.4906	1.36 ± 0.014
298.15 K, 101.33 kPa, x1 = 0.5185	1.362 ± 0.014
298.15 K, 101.33 kPa, x1 = 0.6055	1.427 ± 0.014
298.15 K, 101.33 kPa, x1 = 0.9418	1.598 ± 0.016
303.15 K, 101 kPa, x1 = 0.0501	0.849 ± 0.018
303.15 K, 101 kPa, x1 = 0.1061	0.897 ± 0.019
303.15 K, 101 kPa, x1 = 0.169	0.95 ± 0.02
303.15 K, 101 kPa, x1 = 0.2404	0.994 ± 0.021
303.15 K, 101 kPa, x1 = 0.3219	1.062 ± 0.022
303.15 K, 101 kPa, x1 = 0.4159	1.156 ± 0.024
303.15 K, 101 kPa, x1 = 0.5255	1.159 ± 0.024
303.15 K, 101 kPa, x1 = 0.655	1.234 ± 0.025
303.15 K, 101 kPa, x1 = 0.8103	1.288 ± 0.026
313.15 K, 101.33 kPa, x1 = 0.0417	0.729 ± 0.0073
313.15 K, 101.33 kPa, x1 = 0.144	0.809 ± 0.0081
313.15 K, 101.33 kPa, x1 = 0.281	0.92 ± 0.0092

CCCC[N+](CCCC)(CCCC)CCCC.[OH-] + CS(C)=O
viscosity [mPa·s], 100 kPa
Settings	298.15 K	303.15 K	308.15 K	313.15 K
x1 = 0.0159	2.19 ± 0.05	2.01 ± 0.05	1.87 ± 0.04	1.77 ± 0.04
x1 = 0.0368	2.43 ± 0.05	2.31 ± 0.05	2.19 ± 0.05	2.12 ± 0.05
x1 = 0.0632	2.72 ± 0.06	2.58 ± 0.06	2.47 ± 0.05	2.38 ± 0.05
x1 = 0.0911	3.02 ± 0.06	2.88 ± 0.06	2.77 ± 0.06	2.7 ± 0.06
x1 = 0.1206	3.32 ± 0.07	3.18 ± 0.07	3.08 ± 0.07	3 ± 0.06
x1 = 0.1519	3.65 ± 0.08	3.5 ± 0.07	3.4 ± 0.07	3.33 ± 0.07
x1 = 0.2183	4.25 ± 0.09	4.13 ± 0.09	4.07 ± 0.09	4.02 ± 0.09
x1 = 0.2907	4.86 ± 0.1	4.75 ± 0.1	4.69 ± 0.1	4.65 ± 0.1
x1 = 0.3787	5.51 ± 0.12	5.38 ± 0.11	5.33 ± 0.11	5.29 ± 0.11
x1 = 0.4429	5.92 ± 0.12	5.79 ± 0.12	5.73 ± 0.12	5.69 ± 0.12
x1 = 0.5298	6.4 ± 0.13	6.26 ± 0.13	6.17 ± 0.13	6.13 ± 0.13
x1 = 0.6052	6.71 ± 0.14	6.56 ± 0.14	6.45 ± 0.14	6.42 ± 0.14
x1 = 0.6947	6.97 ± 0.15	6.82 ± 0.14	6.67 ± 0.14	6.62 ± 0.14
x1 = 0.7486	7.03 ± 0.15	6.88 ± 0.14	6.74 ± 0.14	6.7 ± 0.14
x1 = 0.8273	7.07 ± 0.15	6.93 ± 0.15	6.77 ± 0.14	6.7 ± 0.14
x1 = 0.8964	7 ± 0.15	6.85 ± 0.14	6.69 ± 0.14	6.54 ± 0.14
x1 = 0.9481	6.86 ± 0.14	6.7 ± 0.14	6.53 ± 0.14	6.42 ± 0.14
x1 = 0.9765	6.76 ± 0.14	6.61 ± 0.14	6.42 ± 0.14	6.32 ± 0.13

CCCCCCCCn1cc[n+](C)c1.[Cl][Fe-]([Cl])([Cl])[Cl] + CCOC(C)=O
viscosity [mPa·s], 101 kPa
Settings	x1 = 0.0999	x1 = 0.197	x1 = 0.2987	x1 = 0.3989	x1 = 0.4986	x1 = 0.6004	x1 = 0.6958	x1 = 0.7939	x1 = 0.8777
293.15 K	1.47 ± 0.06	3.56 ± 0.15	7.5 ± 0.31	13.82 ± 0.57	23.21 ± 0.96	37.15 ± 1.5	58.2 ± 2.4	85.97 ± 3.8	111.8 ± 5.4
298.15 K	1.38 ± 0.06	3.24 ± 0.13	6.65 ± 0.27	11.97 ± 0.49	19.68 ± 0.81	30.95 ± 1.3	47.6 ± 2	69.55 ± 2.9	91.12 ± 4.1
303.15 K	1.29 ± 0.05	2.97 ± 0.12	5.94 ± 0.24	10.48 ± 0.43	16.88 ± 0.7	26.07 ± 1.1	39.75 ± 1.6	56.28 ± 2.3	73.83 ± 3.2
308.15 K	1.21 ± 0.05	2.72 ± 0.11	5.33 ± 0.22	9.22 ± 0.38	14.61 ± 0.6	22.2 ± 0.92	33.32 ± 1.4	46.86 ± 1.9	59.83 ± 2.5
313.15 K	1.14 ± 0.05	2.52 ± 0.1	4.81 ± 0.2	8.17 ± 0.34	12.77 ± 0.53	19.08 ± 0.79	28.28 ± 1.2	39.4 ± 1.6	49.32 ± 2.1
318.15 K	1.07 ± 0.04	2.33 ± 0.1	4.37 ± 0.18	7.31 ± 0.3	11.24 ± 0.46	16.49 ± 0.68	24.27 ± 1	33.42 ± 1.4	41.48 ± 1.7
323.15 K	1.02 ± 0.04	2.16 ± 0.09	3.99 ± 0.16	6.6 ± 0.27	9.97 ± 0.41	14.4 ± 0.59	20.98 ± 0.87	28.43 ± 1.2	35.08 ± 1.5

CC/C(C)=N/O + C1CCCCC1
viscosity [mPa·s], 101.3 kPa
Settings	x1 = 0.0972	x1 = 0.1952	x1 = 0.2926	x1 = 0.3921	x1 = 0.4913	x1 = 0.5914	x1 = 0.6926	x1 = 0.7942	x1 = 0.8967
293.15 K	1.007 ± 0.007	1.072 ± 0.008	1.166 ± 0.008	1.302 ± 0.009	1.489 ± 0.01	1.75 ± 0.012	2.122 ± 0.014	2.681 ± 0.018	3.585 ± 0.023
298.15 K	0.923 ± 0.007	0.982 ± 0.007	1.065 ± 0.008	1.182 ± 0.008	1.339 ± 0.009	1.567 ± 0.011	1.884 ± 0.013	2.347 ± 0.016	3.035 ± 0.02
303.15 K	0.844 ± 0.006	0.895 ± 0.007	0.967 ± 0.007	1.068 ± 0.008	1.205 ± 0.008	1.397 ± 0.01	1.667 ± 0.011	2.053 ± 0.014	2.622 ± 0.017

— the CheMixHub viscosity set
